Columns and labels:
[1] = test system: HEK293sieSTAT3(wt); assay: drug sensitivity score (DSS), cytotoxicity CellTox Green (DSS (dimensionless)); higher = more cytotoxic; extreme values may be limits of the assay; conditions: 72 h; STAT3 variant: wild type
Procedure, shortened: (§1)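 HEK293 cells bearing a STAT3-dependent luciferase reporter and overexpressing wild-type or mutant STAT3 were incubated with compounds at 5 concentrations in 10-fold steps for 72 hours at 37°C and 5% CO2. CellTox Green fluorescence and then CellTiter-Glo luminescence were measured, and values were normalised to negative and positive control wells. In Breeze, a drug sensitivity score was computed from the dose-response curve area.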

[2] = test system: HEK293sieSTAT3(Y640F); assay: as above; conditions: 72 h; STAT3 variant: Y640F (constitutively active)
Procedure, shortened: as §1

[3] = test system: HEK293sieSTAT3(wt); assay: drug sensitivity score (DSS), viability CellTiter-Glo (DSS (dimensionless)); higher = more growth inhibition; extreme values may be limits of the assay; conditions: 72 h; STAT3 variant: wild type
Procedure, shortened: as §1

[4] = test system: HEK293sieSTAT3(Y640F); assay: as above; conditions: 72 h; STAT3 variant: Y640F (constitutively active)
Procedure, shortened: as §1

Row | Structure (SMILES) | drug sensitivity score [1] | drug sensitivity score [2] | drug sensitivity score [3] | drug sensitivity score [4]
1 | CNC(=O)c1nn(C)c2c1C(C)(C)Cc1cnc(Nc3ccc(N4CCN(C)CC4)cc3)nc1-2 [Milciclib] (top concentration tested 10000 nM) | 7.5 | 1 | 15 | 11.2
2 | CO[C@@]12[C@H](COC(N)=O)C3=C(C(=O)C(C)=C(N)C3=O)N1C[C@@H]1N[C@@H]12 [Mitomycin C] (top concentration tested 10000 nM) | 1.95 | 0.86 | 5.72 | 14.5
3 | Clc1ccc(C(c2ccccc2Cl)C(Cl)Cl)cc1 (stereo unspecified) [Mitotane] (top concentration tested 10000 nM) | 0 | 0 | 0 | 0
4 | O=C1c2c(O)ccc(O)c2C(=O)c2c(NCCNCCO)ccc(NCCNCCO)c21 [Mitoxantrone] (top concentration tested 1000 nM) | 0.93 | 0.1 | 9.78 | 10.6
5 | Nc1ccccc1NC(=O)c1ccc(CNc2nccc(-c3cccnc3)n2)cc1 [Mocetinostat] (top concentration tested 10000 nM) | 6.57 | 2.68 | 13.1 | 11.5
6 | N#CCNC(=O)c1ccc(-c2ccnc(Nc3ccc(N4CCOCC4)cc3)n2)cc1 [Momelotinib] (top concentration tested 10000 nM) | 5.09 | 3.84 | 5.53 | 7.37
7 | CC1(C)CNc2cc(NC(=O)c3cccnc3NCc3ccncc3)ccc21 [Motesanib] (top concentration tested 10000 nM) | 0.6 | 0.35 | 1.53 | 2.6
8 | FC(F)(F)c1ccc(/C=C/c2nc(COc3ccc(CCCCn4ccnn4)cc3)co2)cc1 [Mubritinib] (top concentration tested 1000 nM) | 0.57 | 0 | 5.94 | 8.41
9 | Cc1cc(OCc2nnc(SC3CCCC3)n2-c2cccnc2)ccc1-c1ccc(S(C)(=O)=O)cc1 [NMS-873] (top concentration tested 10000 nM) | 7.29 | 6.39 | 12.5 | 11.8
10 | CCN1CCN(Cc2ccc(-c3cc4c(N[C@H](C)c5ccccc5)ncnc4[nH]3)cc2)CC1 [NVP-AEE788] (top concentration tested 2500 nM) | 0.32 | 0 | 1.25 | 1.43
11 | CCN1CCN(c2ccc(Nc3cc(N(C)C(=O)Nc4c(Cl)c(OC)cc(OC)c4Cl)ncn3)cc2)CC1 [NVP-BGJ398] (top concentration tested 1000 nM) | 2.48 | 0 | 0 | 0.2
12 | COc1ccc(-c2ccc3ncc4c(c3c2)n(-c2ccc(N3CCNCC3)c(C(F)(F)F)c2)c(=O)n4C)cn1 [NVP-BGT226] (top concentration tested 1000 nM) | 9.37 | 4.28 | 28 | 24.6
13 | CNC(=O)c1ccc(-c2cnc3ncc(Cc4ccc5ncccc5c4)n3n2)cc1F [NVP-INC280] (top concentration tested 1000 nM) | 0 | 0 | 2.77 | 3.02
14 | CC1(C)CCC(c2ccc(Cl)cc2)=C(CN2CCN(c3ccc(C(=O)NS(=O)(=O)c4ccc(N[C@H](CCN5CCOCC5)CSc5ccccc5)c(S(=O)(=O)C(F)(F)F)c4)cc3)CC2)C1 [Navitoclax] (top concentration tested 10000 nM) | 0 | 0 | 0 | 0
15 | COc1nc(N)nc2c1ncn2[C@@H]1O[C@H](CO)[C@@H](O)[C@@H]1O [Nelarabine] (top concentration tested 10000 nM) | 0 | 0 | 1.07 | 0.7
16 | CCOc1cc2ncc(C#N)c(Nc3ccc(OCc4ccccn4)c(Cl)c3)c2cc1NC(=O)/C=C/CN(C)C [Neratinib] (top concentration tested 1000 nM) | 0 | 0 | 1.99 | 3.35
17 | Cc1cn(-c2cc(NC(=O)c3ccc(C)c(Nc4nccc(-c5cccnc5)n4)c3)cc(C(F)(F)F)c2)cn1 [Nilotinib] (top concentration tested 10000 nM) | 0 | 0.16 | 3.74 | 3.13

Row | Structure (SMILES) | drug sensitivity score [1] | drug sensitivity score [2] | drug sensitivity score [3] | drug sensitivity score [4]
18 | CC1(C)NC(=O)N(c2ccc([N+](=O)[O-])c(C(F)(F)F)c2)C1=O [Nilutamide] (top concentration tested 10000 nM) | 0.74 | 0 | 0.69 | 2.68
19 | COC(=O)c1ccc2c(c1)NC(=O)/C2=C(\Nc1ccc(N(C)C(=O)CN2CCN(C)CC2)cc1)c1ccccc1 [Nintedanib] (top concentration tested 10000 nM) | 6.55 | 3.45 | 9.79 | 8
20 | NC(=O)c1cccc2cn(-c3ccc([C@@H]4CCCNC4)cc3)nc12 [Niraparib] (top concentration tested 10000 nM) | 9.84 | 1.69 | 13.3 | 8.57
21 | COc1ccc(C2=N[C@@H](c3ccc(Cl)cc3)[C@@H](c3ccc(Cl)cc3)N2C(=O)N2CCNC(=O)C2)c(OC(C)C)c1 [Nutlin-3] (top concentration tested 10000 nM) | 0.87 | 0.07 | 1.15 | 1.89
22 | COc1cccc2cc(-c3nc([C@H]4CC[C@H](C(=O)O)CC4)n4ncnc(N)c34)[nH]c12 [OSI-027] (top concentration tested 10000 nM) | 0 | 0 | 6.8 | 7.79
23 | O=C(Nc1ccc(OC(F)(F)F)cc1)c1sccc1NCc1ccnc2ccccc12 [OSI-930] (top concentration tested 2500 nM) | 0 | 0 | 1.31 | 0.46
24 | CC(=O)c1cnc2ccc(-c3cc(Cl)c(O)c(Cl)c3)nc2c1N[C@H]1CC[C@H](CN(C)C)CC1 [OTSSP167] (top concentration tested 1000 nM) | 5.73 | 5.22 | 21.2 | 21.1
25 | Cc1sc2c(c1C)C(c1ccc(Cl)cc1)=N[C@@H](CC(=O)Nc1ccc(O)cc1)c1nnc(C)n1-2 [OTX015] (top concentration tested 10000 nM) | 10.9 | 3.12 | 10.5 | 12.2
26 | COC1=CC(c2cc3ccccc3[nH]2)=N/C1=C\c1[nH]c(C)cc1C [Obatoclax] (top concentration tested 10000 nM) | 0 | 0 | 2.27 | 1.57
27 | O=C(c1cc(Cc2n[nH]c(=O)c3ccccc23)ccc1F)N1CCN(C(=O)C2CC2)CC1 [Olaparib] (top concentration tested 10000 nM) | 0.67 | 0 | 3.58 | 4.22
28 | COC(=O)C[C@](O)(CCCC(C)(C)O)C(=O)O[C@@H]1C(OC)=C[C@]23CCCN2CCc2cc4c(cc2[C@H]13)OCO4 [Omacetaxine] (top concentration tested 10000 nM) | 3.27 | 1.64 | 32.9 | 28.9
29 | COc1ncc(-c2ccc3nccc(-c4ccnnc4)c3c2)cc1NS(=O)(=O)c1ccc(F)cc1F [Omipalisib] (top concentration tested 1000 nM) | 6.37 | 0 | 22.1 | 18.3
30 | CC(C)c1cc(C(=O)N2Cc3ccc(CN4CCN(C)CC4)cc3C2)c(O)cc1O [Onalespib] (top concentration tested 2500 nM) | 18.9 | 7.91 | 24.5 | 20.9
31 | COC[C@H](NC(=O)c1cnc(C)s1)C(=O)N[C@@H](COC)C(=O)N[C@@H](Cc1ccccc1)C(=O)[C@@]1(C)CO1 [Oprozomib] (top concentration tested 2500 nM) | 28.3 | 21.5 | 28.8 | 23.6
32 | Cc1[nH]c(/C=C2\C(=O)Nc3ccccc32)c(C)c1CCC(=O)O [Orantinib] (top concentration tested 10000 nM) | 21.6 | 18.4 | 1.33 | 1.85
33 | CNC(=O)c1ccc2cc([C@@]3(O)CCn4cncc43)ccc2c1 [Orteronel] (top concentration tested 10000 nM) | 0 | 0 | 0 | 0
34 | C=CC(=O)Nc1cc(Nc2nccc(-c3cn(C)c4ccccc34)n2)c(OC)cc1N(C)CCN(C)C [Osimertinib] (top concentration tested 2500 nM) | 6.55 | 0.47 | 8.88 | 6.46
